Test [1] deals with db/db mice. The test is described as follows: Blood glucose lowering in db/db mice (Example 8). It counts as in vivo. The conditions noted are these: db/db male mice, 30 nmol/kg subcutaneous single dose, blood glucose 0-10 hours, AUC, vs PBS control; FIG. 2. Here is the method: The feeding conditions of db/db mice were the same as described in Example 7. The db/db male mice (8 weeks old) were given one week to acclimate to the environmental conditions of the test facility. Baseline blood glucose and body weight were recorded for three days before the experiment (−3 day to −1 day). The mice were randomly grouped based on their three-day blood glucose and body weight, with 6 mice in each group. Mice were injected subcutaneously with PBS (5 ml/kg, control group) or the peptide compounds 31, 35, 38, 44 and 49 (30 nmol/kg) respectively at 10:00 in the morning. Blood was collected at 0 hour before drug administration, and 1, 2, 4, 6, 8, and 10 hours after administration, and blood glucose was measured using a OneTouch glucose meter (Johnson & Johnson) and test strips. Blood glucose curves were plotted with time as the abscissa and the blood glucose value at different time point as the ordinate, and the areas under the curve (AUC) were calculated.

The next test concerns DIO obese mice. Briefly: DIO obese mice 14-day body composition study (Example 14). In kind it is in vivo, C57BL/6 mice. The settings on record: 1.5 nmole per animal s.c. once a day for 14 days; for lean mass: EchoMRI day 0 vs day 15, FIG. 13; for fat mass: EchoMRI day 0 vs day 15, vs PBS control, FIG. 13. Here is the method: The DIO obese mice experiment was conducted by Shanghai WuXi AppTec New Drug Development Co., Ltd. The animal feeding was the same as described in Example 13. The animals were adapted to grasping and subcutaneous injection for 1 week at 40 weeks of age. The body weight and food intake were measured for 3 consecutive days before the experiment, and the fasting blood glucose of the animals was measured 1 day before the experiment. The animals with abnormal blood glucose were removed, and the remaining animals were grouped according to the random blood glucose and body weight of the animals (using body weight as the main reference indicator), with 6 animals per group and an average weight of 47 grams. During the experiment, each group of the animals was injected subcutaneously with PBS, or 1.5 nmole of compound 35 or compound 40 per animal once a day, and the dosing period was 14 days. An EchoMRI body composition analyzer was used to measure the body fat content of the animals before and after the experiment.

For test [2], the system named is db/db mice. Briefly: Blood glucose lowering in db/db mice (Example 7). In kind it is in vivo. The settings on record: db/db male mice, 30 nmol/kg subcutaneous single dose, blood glucose 0-10 hours, AUC, vs PBS control; FIG. 1. The protocol: db/db mice were housed in animal feeding rooms with strictly controlled environmental conditions. The temperature in the feeding room was maintained at 20-24° C. and the humidity was maintained at 40-70%. The temperature and humidity of the feeding room were monitored in real time by a temperature and humidity meter, and the temperature and humidity were recorded twice a day (once in the morning and once in the afternoon). The lighting in the animal feeding room was controlled by an electronic timing light-on system. The lights were turned on for 12 hours and turned off for 12 hours every day (on at 7:00 in the morning and off at 19:00 in the afternoon). During the experiment, the mice were individually housed in each cage, and toys were provided to the mice in each cage. During the experiment mice had free access to water. The db/db male mice (6 weeks old) were given one week to acclimate to the environmental conditions of the test facility. Baseline blood glucose and body weight were recorded for three days before the test (−3 day to −1 day). The mice were randomly grouped based on three-day blood glucose and body weight, with 6 mice in each group. The mice were injected subcutaneously with PBS (5 ml/kg, control group) or the peptide compounds 1, 2, 8, 16, 18, 19, 24, and 36 (30 nmol/kg) respectively at 10:00 am. Blood was collected at 0 hour before drug administration, and 1, 2, 4, 6, 8 and 10 hours after administration, and blood glucose was measured using a OneTouch glucose meter (Johnson & Johnson) and test strips. Blood glucose curves were plotted with time as the abscissa and the blood glucose value at different time point as the ordinate, the areas under the curve (AUC) were calculated, and the hypoglycemic effects and duration of time of the peptide compounds were compared.

“Also recorded” adds a separate entry of the source. Where no end group is shown, it is not given here. [ ]: non-standard residue; d: D form. Aib = CC(C)(N)C(=O)O

Consider “Y(aib)EGTFTSDLSI(aib)LEKEAVKLFIEWLLAGGPSSGAPPPK-NH2 (YXEGTFTSDLSIXLEKEAVKLFIEWLLAGGPSSGAPPPK; Aib; C-terminal amide; …ON (2)..(2) X=aminoisobutyric aicd; …ON (13)..(13) X=aminoisobutyric aicd; …ON (39)..(39) AMIDATION, C-termianl amidation) [Compound 49]”, for which the blood glucose result with db/db mice [1] is “significantly reduced the blood glucose”.
The same measure, in the same setting: with “Y(aib)EGTFTSDLSI(aib)LEKEAVRLFIEWLLAGGPSSGAPPPC-NH2 (YXEGTFTSDLSIXLEKEAVRLFIEWLLAGGPSSGAPPPC; Aib; C-terminal amide; MOD_RES (2)..(2) X=aminoisobutyric aicd; MOD_RES (13)..(13) X=aminoisobutyric aicd; MOD_RES (39)..(39) AMIDATION, C-termianl amidation) [Compound 38]” the entry was “significantly reduced the blood glucose”.
For the substance “Y(aib)EGTFTSDLSI(aib)LEKEAVRLFIEWLLAGGPSSGAPPPK-NH2 (YXEGTFTSDLSIXLEKEAVRLFIEWLLAGGPSSGAPPPK; Aib; C-terminal amide; MOD_RES (2)..(2) X=aminoisobutyric aicd; MOD_RES (13)..(13) X=aminoisobutyric aicd; MOD_RES (39)..(39) AMIDATION, C-termianl amidation) [Compound 40]”, in the test with DIO obese mice, the lean mass entry was “basically unchanged” and the fat mass entry is given as “effectively reduced fat mass; also recorded: decreased markedly”.
Take “Y(aib)EGTFTSDLSIALEKEAVKLFIEWLLAGGPSSGAPPPK-NH2 (Y[Aib]EGTFTSDLSIALEKEAVKLFIEWLLAGGPSSGAPPPK-NH2; N-terminus assumed; SMILES CC[C@H](C)[C@H](NC(=O)[C@H](CO)NC(=O)[C@H](CC(C)C)NC(=O)[C@H](CC(=O)O)NC(=O)[C@H](CO)NC(=O)[C@@H](NC(=O)[C@H](Cc1ccccc1)NC(=O)[C@@H](NC(=O)CNC(=O)[C@H](CCC(=O)O)NC(=O)C(C)(C)NC(=O)[C@@H](N)Cc1ccc(O)cc1)[C@@H](C)O)[C@@H](C)O)C(=O)N[C@@H](C)C(=O)N[C@@H](CC(C)C)C(=O)N[C@@H](CCC(=O)O)C(=O)N[C@@H](CCCCN)C(=O)N[C@@H](CCC(=O)O)C(=O)N[C@@H](C)C(=O)N[C@H](C(=O)N[C@@H](CCCCN)C(=O)N[C@@H](CC(C)C)C(=O)N[C@@H](Cc1ccccc1)C(=O)N[C@H](C(=O)N[C@@H](CCC(=O)O)C(=O)N[C@@H](Cc1c[nH]c2ccccc12)C(=O)N[C@@H](CC(C)C)C(=O)N[C@@H](CC(C)C)C(=O)N[C@@H](C)C(=O)NCC(=O)NCC(=O)N1CCC[C@H]1C(=O)N[C@@H](CO)C(=O)N[C@@H](CO)C(=O)NCC(=O)N[C@@H](C)C(=O)N1CCC[C@H]1C(=O)N1CCC[C@H]1C(=O)N1CCC[C@H]1C(=O)N[C@@H](CCCCN)C(N)=O)[C@@H](C)CC)C(C)C) [Compound 44]”: the blood glucose entry in the test on db/db mice [1] is on record as “significantly reduced the blood glucose”.
For the substance “Y(aib)EGTFTSDLSIALEKEAVRLFIEWLLAGGPSSGAPPPK-NH2 (Y[Aib]EGTFTSDLSIALEKEAVRLFIEWLLAGGPSSGAPPPK-NH2; N-terminus assumed; SMILES CC[C@H](C)[C@H](NC(=O)[C@H](CO)NC(=O)[C@H](CC(C)C)NC(=O)[C@H](CC(=O)O)NC(=O)[C@H](CO)NC(=O)[C@@H](NC(=O)[C@H](Cc1ccccc1)NC(=O)[C@@H](NC(=O)CNC(=O)[C@H](CCC(=O)O)NC(=O)C(C)(C)NC(=O)[C@@H](N)Cc1ccc(O)cc1)[C@@H](C)O)[C@@H](C)O)C(=O)N[C@@H](C)C(=O)N[C@@H](CC(C)C)C(=O)N[C@@H](CCC(=O)O)C(=O)N[C@@H](CCCCN)C(=O)N[C@@H](CCC(=O)O)C(=O)N[C@@H](C)C(=O)N[C@H](C(=O)N[C@@H](CCCNC(=N)N)C(=O)N[C@@H](CC(C)C)C(=O)N[C@@H](Cc1ccccc1)C(=O)N[C@H](C(=O)N[C@@H](CCC(=O)O)C(=O)N[C@@H](Cc1c[nH]c2ccccc12)C(=O)N[C@@H](CC(C)C)C(=O)N[C@@H](CC(C)C)C(=O)N[C@@H](C)C(=O)NCC(=O)NCC(=O)N1CCC[C@H]1C(=O)N[C@@H](CO)C(=O)N[C@@H](CO)C(=O)NCC(=O)N[C@@H](C)C(=O)N1CCC[C@H]1C(=O)N1CCC[C@H]1C(=O)N1CCC[C@H]1C(=O)N[C@@H](CCCCN)C(N)=O)[C@@H](C)CC)C(C)C) [Compound 35]”, in the test with db/db mice [1], the blood glucose entry is reported as “significantly reduced the blood glucose”. Further, in the test with DIO obese mice, the lean mass entry is listed as “basically unchanged” and the fat mass result is “effectively reduced fat mass; also recorded: decreased markedly”.
With “Y(aib)EGTFTSDLSIALEKEAVRLFIEWLLAGGPSSGAPPPS-NH2 (Y[Aib]EGTFTSDLSIALEKEAVRLFIEWLLAGGPSSGAPPPS-NH2; N-terminus assumed; SMILES CC[C@H](C)[C@H](NC(=O)[C@H](CO)NC(=O)[C@H](CC(C)C)NC(=O)[C@H](CC(=O)O)NC(=O)[C@H](CO)NC(=O)[C@@H](NC(=O)[C@H](Cc1ccccc1)NC(=O)[C@@H](NC(=O)CNC(=O)[C@H](CCC(=O)O)NC(=O)C(C)(C)NC(=O)[C@@H](N)Cc1ccc(O)cc1)[C@@H](C)O)[C@@H](C)O)C(=O)N[C@@H](C)C(=O)N[C@@H](CC(C)C)C(=O)N[C@@H](CCC(=O)O)C(=O)N[C@@H](CCCCN)C(=O)N[C@@H](CCC(=O)O)C(=O)N[C@@H](C)C(=O)N[C@H](C(=O)N[C@@H](CCCNC(=N)N)C(=O)N[C@@H](CC(C)C)C(=O)N[C@@H](Cc1ccccc1)C(=O)N[C@H](C(=O)N[C@@H](CCC(=O)O)C(=O)N[C@@H](Cc1c[nH]c2ccccc12)C(=O)N[C@@H](CC(C)C)C(=O)N[C@@H](CC(C)C)C(=O)N[C@@H](C)C(=O)NCC(=O)NCC(=O)N1CCC[C@H]1C(=O)N[C@@H](CO)C(=O)N[C@@H](CO)C(=O)NCC(=O)N[C@@H](C)C(=O)N1CCC[C@H]1C(=O)N1CCC[C@H]1C(=O)N1CCC[C@H]1C(=O)N[C@@H](CO)C(N)=O)[C@@H](C)CC)C(C)C) [Compound 31]”, the blood glucose entry in the test with db/db mice [1] is on record as “significantly reduced the blood glucose”.
For the substance “Y(aib)EGTFTSDYSIYLEKEAVRLFVNWLIAGGPSSGAPPPS-NH2 (Y[Aib]EGTFTSDYSIYLEKEAVRLFVNWLIAGGPSSGAPPPS-NH2; N-terminus assumed; SMILES CC[C@H](C)[C@H](NC(=O)[C@H](CC(C)C)NC(=O)[C@H](Cc1c[nH]c2ccccc12)NC(=O)[C@H](CC(N)=O)NC(=O)[C@@H](NC(=O)[C@H](Cc1ccccc1)NC(=O)[C@H](CC(C)C)NC(=O)[C@H](CCCNC(=N)N)NC(=O)[C@@H](NC(=O)[C@H](C)NC(=O)[C@H](CCC(=O)O)NC(=O)[C@H](CCCCN)NC(=O)[C@H](CCC(=O)O)NC(=O)[C@H](CC(C)C)NC(=O)[C@H](Cc1ccc(O)cc1)NC(=O)[C@@H](NC(=O)[C@H](CO)NC(=O)[C@H](Cc1ccc(O)cc1)NC(=O)[C@H](CC(=O)O)NC(=O)[C@H](CO)NC(=O)[C@@H](NC(=O)[C@H](Cc1ccccc1)NC(=O)[C@@H](NC(=O)CNC(=O)[C@H](CCC(=O)O)NC(=O)C(C)(C)NC(=O)[C@@H](N)Cc1ccc(O)cc1)[C@@H](C)O)[C@@H](C)O)[C@@H](C)CC)C(C)C)C(C)C)C(=O)N[C@@H](C)C(=O)NCC(=O)NCC(=O)N1CCC[C@H]1C(=O)N[C@@H](CO)C(=O)N[C@@H](CO)C(=O)NCC(=O)N[C@@H](C)C(=O)N1CCC[C@H]1C(=O)N1CCC[C@H]1C(=O)N1CCC[C@H]1C(=O)N[C@@H](CO)C(N)=O) [Compound 8]”, the blood glucose entry in the test with db/db mice [2] was “significantly reduce blood glucose”.

Values taken from US12612441B2, “Polypeptide and therapeutic uses thereof” (Vitalixir (Beijing) Co., Ltd, priority 2019, dated 2026).
